These results are taken from patent publication US20250136634A1, “CAP ANALOG AND USE THEREOF” (SHANGHAI HONGENE BIOTECH CORPORATION, priority 2021, published 2025).

The target of one assay is T1, IFIT1 (Homo sapiens, UniProt P09914).
T1 construct: endogenous in cells; host or cells: Hela cells (ATCC CCL-2)
T1 sequence (P09914 1-478): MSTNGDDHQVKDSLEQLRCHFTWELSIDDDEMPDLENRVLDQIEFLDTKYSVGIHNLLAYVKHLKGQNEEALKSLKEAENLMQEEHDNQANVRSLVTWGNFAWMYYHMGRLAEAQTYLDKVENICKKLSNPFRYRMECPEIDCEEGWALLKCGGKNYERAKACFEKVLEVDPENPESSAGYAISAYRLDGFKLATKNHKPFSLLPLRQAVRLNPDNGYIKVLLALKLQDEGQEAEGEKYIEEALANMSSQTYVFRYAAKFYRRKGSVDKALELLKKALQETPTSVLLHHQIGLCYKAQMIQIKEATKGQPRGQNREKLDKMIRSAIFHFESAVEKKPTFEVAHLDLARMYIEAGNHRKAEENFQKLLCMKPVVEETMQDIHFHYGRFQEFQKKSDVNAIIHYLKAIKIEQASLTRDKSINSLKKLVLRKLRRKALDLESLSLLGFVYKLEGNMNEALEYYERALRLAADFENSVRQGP
As to the kind of experiment: Binding ability of mRNA to IFIT1, RNA co-immunoprecipitation and qPCR in Hela cells. Particulars: 2 ug mRNA/well, cells collected after 24 hours, relative to ^m7GpppApG cap, mean±SD. The protocol:
In this example, Hela cells (ATCC CCL-2) were transfected with luciferase mRNAs (Gaussia luciferase) comprising various initial cap structures (the initial cap nucleotide structures comprised are: ^m7GpppApG, ^m7GpppA2′Ome pG, ^m7G3′OmepppA2′O-ethylpG, ^m7G2′OmepppA2′O-ethylpG, ^m7G3′Omeppp A2′O-MOEpG, ^m7G2′O-mepppA2′O-MOEpG, ^m7Gppp(N6-methyladenine)2′O-MOEpG, ^m7G2′OmepppC2′O-ethylpC, ^m7G3′OmepppA2′O-MOEpU), and collected after 24 hours. The intracellular proteins RIG-I and IFIT1 were co-precipitated with the RNAs to which they bound by RNA co-immunoprecipation. The mRNAs were subjected to reverse transcription and real-time quantitative PCR, and the relative abundance of the mRNAs is proportional to their RIG-I and IFIT1 binding ability.
(§1) Hela cells were seeded at a cell density of 4×10^5/well in 6-well plates, and transfected with mRNA at 2 ug mRNA/well when the cell density reached about 80% using Lipofectamine MessengerMAX Transfection Reagent (Invitrogen) according to the transfection steps in the instruction. The cells were collected after 24 hours, and incubated at RT for 10 minutes after the addition of fixative solution. The reaction was then terminated by adding glycine at a suitable concentration, and the cells were collected by centrifugation. Appropriate amount of lysis solution was added to the cells. The mixture was incubated on ice for 30 minutes and centrifuged to collect supernatant. Appropriate amount of (2-4 ng) anti-RIG-I and IFIT1 antibodies (Abcam) were added to the supernatant, and the mixture was incubated overnight at 4° C. on a shaker, and then 20 ul Protein A/G magnetic beads were added and incubated for 2 hours at 4° C. on a shaker. The beads were rinsed using magnetic grate for 5 minutes and repeated 3 times. After that, 1 mL TRIzol reagent was added to the magnetic beads to extract RNAs which were then reverse transcribed into cDNAs. The expression of related genes was detected using real-time quantitative fluorescent PCR with B-actin as the internal reference. The detection of each gene was repeated 3 times, and the result of the expression of each gene is expressed as the relative value to the result of ^m7GpppApG cap.
The intracellular proteins RIG-I and IFIT1 were co-precipitated with the RNAs to which they bound by RNA co-immunoprecipitation. The mRNAs were subjected to reverse transcription and real-time quantitative PCR, and the relative abundance of the mRNAs is proportional to their RIG-I and IFIT1 binding ability.
as §1, with “(Invitrogen) as the transfection reagent” for “(Invitrogen)”, “was” for “was then”
For orientation: Real-time PCR tracks product formation cycle by cycle.

Assay [1] concerns Thermostable T7 RNA polymerase (NEB). Particulars: Example 3, thermostable T7 RNA polymerase IVT at 50° C. for 2 hs, LC-MS. The protocol: The LC-MS analyses involved in determining capping efficiency in the following examples are as follows: • Equipment: Waters UPLC H-Class • Column: ACQUITY UPLC Oligonucleotide BEH C18, 2.1*150 mm • Column temperature: 75° C. • Mobile phase A: 200 mM hexafluoroisopropanol+8.15 mM triethylamine pH7.9 • Mobile phase B: methanol • Flow rate: 0.3 mL/min • Gradient:
Initial cap oligonucleotides are ^m7GpppApG, ^m7G pppA2′Ome PG (control), ^m7GBeta-D-LNApppA2′O-MOEpG, and ^m7GAlpha-L-LNApppA2′O-ethyl pG, respectively. • reacting at 50° C. for 2 hs, • adding DNase I (1U), and reacting at 37° C. for 30 mins. (5) Treatment with Antarctic Phosphatase:
For each tested initial cap oligonucleotide, the ratio of capped mRNA was assessed by analyzing liquid chromatography-mass spectrometry (LC-MS) results. In the experiment, a DNA probe complementary to the mRNA was used. Upon the hybridization of the DNA to the RNA, RNaseH specifically hydrolyzed the phosphodiester bond in the RNA to produce small fragments of RNAs with homogeneous 3′ end. The molecular weight and percentage of the small RNA fragments were determined by LC-MS, and were used to determine capping of the RNAs in the transcription reaction. Since the presence and absence of cap at 5′ end can be distinguished by the molecule weight, the capping efficiency can be determined via the molecule weight and percentage of trunked 5′ end-containing RNAs. In addition, from the calculation of the molecule weight, it can be determined that the caps added are the capping nucleotides.

On to ^m7Gppp(N6-methyladenine)2′O-MOEpG, for which the “Relative binding ability to IFIT1” value at IFIT1 (Example 2) is given as 0.79 ± 0.01.

Take ^m7G3′OmepppA2′O-MOEpU: the “Relative binding ability to IFIT1” value at IFIT1 (Example 2) amounted to 1.19 ± 0.07.

As to ^m7G2′OmepppA2′O-ethylpG, the “Relative binding ability to IFIT1” value on IFIT1 (Example 2) stood at 0.84 ± 0.08.

On to ^m7G2′OmepppC2′O-ethylpC, for which, on IFIT1 (Example 2), the “Relative binding ability to IFIT1” value worked out at 0.91 ± 0.05.

Turning to ^m7G3′OmepppA2′O-MOEpG, at IFIT1 (Example 2), the “Relative binding ability to IFIT1” value is recorded as 0.76 ± 0.04.

In the case of ^m7G2′OmepppA2′O-MOEpG, the “Relative binding ability to IFIT1” value on IFIT1 (Example 2) turned out to be 0.66 ± 0.02.

Turning to ^m7G3′OmepppA2′O-ethylpG, on IFIT1 (Example 2), the “Relative binding ability to IFIT1” value is reported as 0.89 ± 0.13.

Take ^m7GBeta-D-LNApppA2′O-MOEpG: the “Relative binding ability to IFIT1” value on IFIT1 (Example 3 (IVT at 50° C.)) amounted to 0.49 ± 0.04. In assay [1], this substance displayed a Capping efficiency of 70%.

^m7GpppApG [reference compound]: the “Relative binding ability to IFIT1” value amounted to 1 ± 0.04 on IFIT1 (Example 2) and 1 ± 0.19 on IFIT1 (Example 3 (IVT at 50° C.)). Besides, the Capping efficiency in assay [1] stood at 93%.

For the substance ^m7GAlpha-L-LNApppA2′O-ethyl pG, at IFIT1 (Example 3 (IVT at 50° C.)), the “Relative binding ability to IFIT1” value is on record as 0.55 ± 0.07. The Capping efficiency in assay [1] was 63%.

Take ^m7GpppA2′Ome pG [reference compound]: the results for the “Relative binding ability to IFIT1” value at IFIT1 (Example 2) and on IFIT1 (Example 3 (IVT at 50° C.)) were 0.88 ± 0.01 and 0.84 ± 0.09, respectively. In assay [1], the Capping efficiency is listed as 95%.
